This note sets out measurements from patent US20250263370A1 (Tay Therapeutics Limited, priority 2022, published 2025).

The target in one data set is BRD4 BD1 (Homo sapiens (Human), UniProt O60885). Kind of data set: NanoBRET bromodomain assay, NanoLuc-BRD4-BD1 fusion in HEK293 cells. Conditions: top concentration 10 μM. It is filed as cell-based.
Data set [1] can be described thus: Plasma stability assay, rat plasma. It is filed as in vitro ADME. Conditions: Method 2 (10 μM). As to the method: From stock solution of compound in 10 mM DMSO, a working solution of 1 mM is prepared by diluting the compound in DMSO. To 398 μL of plasma pre-warmed at 37° C. for 15 minutes), 2 μL of working solution of compound is added, resulting in a final concentration of 5 μM (0.5% DMSO) for the compound. The sample is then incubated at 37° C. Aliquot is withdrawn at specified time-points (0, 15, 30, 60 and 120 mins). The reaction is stopped by addition of 450 μL cold acetonitrile containing internal standard (IS). […] Aliquots of the supernatant is analysed using LC-MS/MS. The percent remaining of the compound at each time point is calculated with respect to the control sample (0 min time-point).
A working solution of compound (500 μM) is prepared in DMSO (100%). To 735 μL of plasma, 15 μL of working solution of compound is added—resulting in a final concentration of 10 μM (2% DMSO) for the compound. The sample is then incubated at 37° C. Aliquot is withdrawn at time-points—0, 15, 30, 60, 90 and 120 mins. The reaction is stopped by using chilled acetonitrile containing internal standard (IS). The samples are centrifuged and the supernatants analyzed using LC-MS/MS. The percent remaining of the compound at each time point is calculated with respect to the control sample (0 min time-point).

Data set [2] in a line: Intrinsic clearance in liver microsomes, rat. It is filed as in vitro ADME. The following applies: rat, liver microsomes, pH 7.4, rat liver microsomes, read-out: Half-Life (T1/2) (min), Rat. Here is the method:
From stock solution of compound on 10 mM DMSO, a working solution of 0.1 mM is prepared by diluting the compound in DMSO. 6.25 μL of a 20 mg/mL solution of microsomes in PBS pH 7.4 buffer is added to 216.25 μL PBS pH 7.4 buffer (final microsome concentration—0.5 mg/mL). 25 μL of 10 mM solution of NADPH in PBS pH 7.4 buffer is added to the incubations (final NADPH concentration—1 mM). The mixture is pre-warmed to 37° C. for 10 minutes. 2.5 μL of test compound working solution is added (final compound concentration—1 μM with 1% DMSO). Aliquots of 30 μL are taken from the reaction solution at 0.5, 5, 15, 30 and 60 minutes. The reaction was stopped by the addition of 5 volumes of cold acetonitrile with IS (100 nM alprazolam, 200 nM caffeine and 100 nM tolbutamide). Samples were centrifuged at 3, 220 g for 40 minutes. Aliquots of 100 μL of the supernatant are mixed with 100 μL of ultra-pure H2O and used for LC-MS/MS analysis. The percent compound remaining at each time point is calculated with respect to that of the 0.5 min sample. The data are analysed to calculate half-life. Control experiments are run without NADPH and blank samples are prepared using DMSO without the test compound.
A 50 mM stock solution (in DMSO) is prepared for the compound. From the stock solution, a working solution of 0.5 mM is prepared by diluting the compound in DMSO. This concentration of working solution is prepared considering a final concentration of 1 uM with 0.1% DMSO. The compound (1 μL of working solution) is spiked in PBS with pH 7.4 ([…]) at a concentration of 1 μM. Subsequently, 110 μL of 10 mM NADPH is added (as a co-factor). The sample is incubated at 37° C. for 15 min. Following this, pre-warmed liver microsomes (27.5 μL; final protein conc. 0.5 mg/mL) are added. The samples are then incubated at 37° C. Aliquots of samples are withdrawn at 0, 5, 15, 30, 45 and 60 min. The reaction is stopped by using chilled acetonitrile containing internal standard. The samples are centrifuged, and the supernatants analysed by LC-MS/MS. The percent compound remaining at each time point is calculated with respect to that of the 0 min sample. The data are then analysed to calculate half-life and intrinsic clearance (CLint). Control experiments are run without NADPH and blank samples are prepared using DMSO without the test compound.
(Liver microsomes are vesicles of endoplasmic reticulum, rich in cytochrome P450 enzymes.)

For the next data set, the target named is BRD4 BD2 (Homo sapiens (Human), UniProt O60885). The experiment in a line: NanoBRET bromodomain assay, NanoLuc-BRD4-BD2 fusion in HEK293 cells.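 For all read-outs here: tracer displacement BRET read in transfected cells after 2 h compound exposure at 37 °C, signal in milliBRET units corrected against no-tracer background wells.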 The following applies: for IC50: BRD4 BD2 (IC50), NanoBRET, HEK293 cells, top concentration 10 μM; for Fold selectivity: IC50 for BRD4 BD1 divided by IC50 for BRD4 BD2, qualitative if an IC50 is at the upper limit. A general note: Bioluminescence resonance energy transfer reports proximity on the nanometre scale.

Data set [3] is described as follows: Sprague-Dawley rat pharmacokinetics, IV and PO cassette dosing. It is filed as in vivo. The following applies: Method 1; for IV T1/2: IV 1 mg/kg; for PO F: PO 5 mg/kg. As to the method: Compounds were formulated in 5% DMSO, 40% PEG-400, 55% Milli-Q water at a concentration of 0.2 mg/mL for IV and at 0.5 mg/mL for PO. Two male Sprague-Dawley rats per arm were dosed with up to 5 compounds in cassette mode, which each compound being dosed at 1 mg/kg IV and 5 mg/kg PO. Blood was sampled at various timepoints and plasma isolated. 50 μL of plasma with 5 μL of blank Sprague-Dawley rat plasma were added to 200 μL of acetonitrile containing IS mixture. The samples were vortexed for 30 s. After centrifugation at 4 degrees Celsius, 3900 rpm for 15 min, the supernatant was diluted 3 times with water. 20 μL of diluted supernatant was injected into the LC/MS/MS system for quantitative analysis and concentration of analyte determined by comparison with matrix matched standard curve. WinNonlin (Phoenix™, version 8.3) or other similar software may be used for pharmacokinetic calculations.

Read-outs that look alike come from different tables or passages of the source.

Description for BRD4 BD1: (§1) HEK293 cells were transfected using NanoLuc-BRD4-BD1 or NanoLuc-BRD4-BD2 fusion vectors and incubated at 37° C. in an atmosphere of 5% CO2 for 20-24 hours. The transfected cells were then dispensed into 96-well plates using 90 μl cell suspension per well containing 2×10^5 cells/mL in Opti-MEM and 1× final concentration of tracer. 90 μL per well of cell suspension without tracer was also dispensed into at least 3 wells as “No tracer control samples” for background correction. Serially diluted test compounds were prepared at 1000× concentration in DMSO and further diluted to 10× concentration in Opti-MEM. […] Plates were then incubated at 37° C. +5% 002 incubator for 2 hours. […] Donor emission (450 nm) and acceptor emission (610 nm) were measured using PHERAstar (BMG LabTech). For data analysis, the raw BRET ratio was generated and converted to milliBRET units with background correction using the formula: [(Acceptorsample/Donorsample−(Acceptorno tracer control/Donorno tracer control)]×1000. The mBU data was plotted as a function of compound concentration and IC50s for BRET assay were determined by nonlinear regression analysis of concentration response curves using the Collaborative Drug Discovery Vault software. The fold-selectivity was calculated by dividing the IC50 for BRD4 BD1 by the IC50 for BRD4 BD2.
Description for BRD4 BD2: as §1

Broadly, the IC50 is the concentration at which inhibition is half-maximal. Lower therefore signals greater potency. Compound `CCNC(=O)c1cc(OC(c2ccccc2)c2ccccc2)c(C(=O)NC)[nH]1` [Example 53, 3-(benzhydryloxy)-N^5-ethyl-N^2-methyl-1H-pyrrole-2,5-dicarboxamide] had an IC50 against BRD4 BD1 of no less than 10000 nM. The “Plasma Stability (% remaining at 120 minutes), Rat” value in data set [1] is on record as 91%. Moreover, the half-life at 1 μM in data set [2] (Method 2) is greater than 60 min. In addition, on BRD4 BD2, the IC50 lay in the range of 50 to 200 nM; the Fold selectivity entry is “XX (Fold >50 and ≤200)”.
Turning to `CNC(=O)c1[nH]c(C(=O)N[C@H]2CC[C@H](O)CC2)cc1OC(C)c1ccccc1F` (single isomer, unassigned) [Example 45], the “Plasma Stability (% remaining at 120 minutes), Rat” value in data set [1] was 88%. In addition, in data set [2] (Method 2), the half-life at 1 μM was greater than 60 min. Also, the Fold selectivity result on BRD4 BD2 was “XX (Fold >50 and ≤200)”.
With `CCNC(=O)c1[nH]c(C(=O)NC)c(O[C@@H](C)c2ccccc2F)c1Br` [Example 72, (S)-3-bromo-N^2-ethyl-4-(1-(2-fluorophenyl)ethoxy)-N^5-methyl-1H-pyrrole-2,5-dicarboxamide], the “Plasma Stability (% remaining at 120 minutes), Rat” value in data set [1] is listed as 9%. In addition, the half-life at 1 μM in data set [2] (Method 2) came out at 13 min. Also, on BRD4 BD2, the half-inhibitory concentration (IC50) was greater than 10000 nM; the Fold selectivity entry is “— (Fold ≥0 and ≤2)”.
`CNC(=O)c1[nH]c(C(=O)N[C@H]2CC[C@H](O)CC2)cc1OC(C)c1ccc(Cl)cc1F` (single isomer, unassigned) [Example 38, 3-(1-(4-chloro-2-fluorophenyl)ethoxy)-N^5-(trans-4-hydroxycyclohexyl)-N^2-methyl-1H-pyrrole-2,5-dicarboxamide] registered an IC50 on BRD4 BD1 of no less than 10000 nM. The half-life at 1 μM in data set [2] (Method 1) is greater than 60 min. In data set [3], the “IV T1/2” value came to 1.4 h and the “PO F” value is on record as 66%. For the same compound, at BRD4 BD2, the half-maximal inhibitory concentration (IC50) fell in the range of 50 to 200 nM; the Fold selectivity result was “XX (Fold >50 and ≤200)”.
With `CCNC(=O)c1cc(OC(C)c2c(F)cccc2F)c(C(=O)NC)[nH]1` (single isomer, unassigned) [Example 55, 3-(1-(2,6-difluorophenyl)ethoxy)-N^5-ethyl-N^2-methyl-1H-pyrrole-2,5-dicarboxamide], the “Plasma Stability (% remaining at 120 minutes), Rat” value in data set [1] is 88%. Besides, in data set [2] (Method 2), the half-life at 1 μM was greater than 60 min. The Fold selectivity entry on BRD4 BD2 is “— (Fold ≥0 and ≤2)”.
`CCNC(=O)c1cc(OC(C)c2ccc(Cl)cc2F)c(C(=O)NC)[nH]1` (single isomer, unassigned) [Example 41, 3-(1-(4-chloro-2-fluorophenyl)ethoxy)-N^5-ethyl-N^2-methyl-1H-pyrrole-2,5-dicarboxamide] registered an IC50 against BRD4 BD1 of no less than 10000 nM. Further, in data set [2] (Method 1), the half-life at 1 μM is greater than 60 min. In data set [3], the “IV T1/2” value stood at 0.3 h and the “PO F” value was 69%. Besides, at BRD4 BD2, the IC50 was 200 to 1000 nM; the Fold selectivity result is “X (Fold >2 and ≤50)”.
At BRD4 BD1, `CCNC(=O)c1cc(OC(C)c2ccccc2)c(C(=O)NC)[nH]1` (racemic) [Example 95, N^5-ethyl-N^2-methyl-3-(1-phenylethoxy)-1H-pyrrole-2,5-dicarboxamide] had an IC50 of no less than 10000 nM. For the same compound, the half-life at 1 μM in data set [2] (Method 1) is greater than 60 min. Further, at BRD4 BD2, the IC50 was 200 to 1000 nM; the Fold selectivity result is “X (Fold >2 and ≤50)”.
With `CNC(=O)c1[nH]c(C(=O)NC2CCC(O)CC2)cc1OC(C)c1ccc(Cl)cc1` (single isomer, unassigned) [Example 29, 3-(1-(4-chlorophenyl)ethoxy)-N^5-(4-hydroxycyclohexyl)-N^2-methyl-1H-pyrrole-2,5-dicarboxamide], the “Plasma Stability (% remaining at 120 minutes), Rat” value in data set [1] came to 89%. Further, the half-life at 1 μM in data set [2] (Method 1) is greater than 60 min. Further, the Fold selectivity result at BRD4 BD2 was “XX (Fold >50 and ≤200)”.
Regarding `CNC(=O)c1[nH]c(C(=O)NC2CCC2)cc1OC(C)c1ccccc1F` (single isomer, unassigned) [Example 43, N^5-cyclobutyl-3-(1-(2-fluorophenyl)ethoxy)-N^2-methyl-1H-pyrrole-2,5-dicarboxamide], the concentration for half-maximal inhibition (IC50) against BRD4 BD1 is no less than 10000 nM. Further, in data set [1], the “Plasma Stability (% remaining at 120 minutes), Rat” value came to 20%. Further, in data set [3], the “IV T1/2” value came to 0.5 h and the “PO F” value was 58%. At BRD4 BD2, the IC50 is 50 to 200 nM; the Fold selectivity entry was “XX (Fold >50 and ≤200)”.
